The record followed here is PubChem BioAssay (NCI).

Each structure is given as a SMILES string.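 Briefly, cells in 96-well plates were exposed to five compound concentrations for 48 h, and endpoints were estimated by linear interpolation. TGI is the concentration that stops growth completely.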

Holding throughout (experiment): inhibition of tumour cell growth, NCI panel, 48 h
In assay [1] the test system is OVCAR-4 ovarian.
The test system of assay [2] is MALME-3M melanoma.
The subject of assay [3] is HCC-2998 colon.
In assay [4] the test system is RPMI-8226 leukemia.
For assay [5], the system named is OVCAR-5 ovarian.
The subject of assay [6] is HCT-15 colon.
For assay [7], the system named is K-562 leukemia.
Assay [8] has as its system SF-539 CNS.
The test system of assay [9] is TK-10 renal.
In assay [10] the test system is SNB-19 CNS.

Turning to `COc1cc2ccc3c4cc(OC)c(OC)cc4c[n+](C)c3c2cc1O`, the TGI in assay [1], in assay [2], in assay [3], in [4], in assay [5] and in assay [6] was over 100 µM in each case. Further, the TGI in assay [7], in assay [8], in assay [9] and in assay [10] was over 100 µM in each case.
For the molecule `CC(C)NC(=O)OCc1c(COC(=O)NC(C)C)n(C)c2c1ccc1sccc12`, the TGI in [1] is 36.5 µM; in assay [2] it was 13.6 µM; in assay [3], 30.3 µM; in assay [4] it was over 58.8 µM; in [5] it was over 100 µM; in assay [6], over 52.3 µM. The TGI in assay [7] was over 52.2 µM; in [8] it was 26 µM; in assay [9] it was 75.6 µM; in assay [10], over 100 µM.
For the molecule `CC(=O)c1ccc(Oc2c3ccccc3nc3ccccc23)cc1`, the TGI in assay [1] came to 18.6 µM; in assay [2], 27.2 µM; in assay [3] it was 24 µM; in assay [4] it was 9.63 µM; in assay [5], 23.9 µM; in assay [6], 17.5 µM. Moreover, the TGI in assay [7] was found to be 20.1 µM; in assay [8], 5.5 µM; in assay [9], 19.8 µM; in assay [10] it was 37.8 µM.
As for `O=C(ON=C1c2ccccc2C(Br)C(Br)c2ccccc21)c1ccccc1` (stereo not given), the TGI in assay [1] worked out at 30 µM; in assay [2], 37.1 µM; in assay [3], 38.1 µM; in assay [4] it was 14.7 µM; in assay [5] it was 35.6 µM; in assay [6], 42.5 µM. In addition, the TGI is 8.98 µM in assay [7], 13.9 µM in assay [8], 31.5 µM in assay [9] and 62.1 µM in [10].
Take `O=C(CC(NC(=O)C(F)(F)F)C(=O)O)OCc1ccccc1` (stereo not given): the TGI in assay [1], in assay [2], in assay [3], in [4], in [5] and in assay [6] was over 100 µM in each case. For the same molecule, the TGI in [7], in assay [8], in assay [9] and in assay [10] was over 100 µM in each case.
For the molecule `COc1ccc(CNc2cnc3ccc(N)cc3n2)cc1`, the TGI in assay [1], in assay [2], in [3], in [4], in assay [5] and in assay [6] was over 100 µM each time. Moreover, the TGI in assay [7], in [8], in [9] and in [10] was over 100 µM each time.
On to `Cc1c(C)n(-c2ccccc2)c2nc(S(C)=O)nc(S(C)=O)c12` (stereo not given), for which the TGI in assay [1] was determined as 17.4 µM; in assay [2] it was 4.09 µM; in assay [3], 30.3 µM; in [4] it was 5.28 µM; in assay [5] it was 28.9 µM; in assay [6], 17.8 µM. For the same molecule, the TGI in assay [7] turned out to be 4.28 µM; in [8], 14.7 µM; in [9], 7.36 µM; in assay [10], 31.3 µM.
In the case of `CN1CSC(=S)N(c2cccc(C(F)(F)F)c2)C1`, the TGI worked out at 37.5 µM in assay [1]; 35.2 µM in assay [2]; 32.9 µM in assay [3]; 39.4 µM in assay [4]; 37 µM in [5]; 38 µM in assay [6]. In addition, the TGI was found to be 59.6 µM in assay [7], 52 µM in assay [8], 72.3 µM in assay [9] and 61 µM in assay [10].
As for `c1ccc(C2=NC3OC2c2ccccc23)cc1` (stereo not given), the TGI in assay [1], in assay [2], in [3], in assay [4], in assay [5] and in assay [6] was over 10 µM throughout. In addition, the TGI in [7], in assay [8], in assay [9] and in assay [10] was over 10 µM in each case.
Consider `CCCCCCN(CCCCCC)C(=S)N/N=C(\C)c1ccccn1`, for which the TGI in assay [1] turned out to be 3.16 µM; in [2] it was 3.17 µM; in [3] it was 9.03 µM; in assay [4], 3.22 µM; in assay [5], 5.59 µM; in [6] it was 3.4 µM. Moreover, the TGI in assay [7] was 4.64 µM; in [8], 2.77 µM; in assay [9], 2.5 µM; in [10] it was 3.92 µM.
Turning to `COC1OC(C)C(NC(=O)OCC(Cl)(Cl)Cl)C2OC(C)(C)OC12` (stereo not given), the TGI in [1], in assay [2], in assay [3], in assay [4], in assay [5] and in [6] was over 100 µM in each case. Also, the TGI in assay [7], in assay [8], in [9] and in assay [10] was over 100 µM in each case.
For `Cc1ccc2c(c1C)C(=O)C1(Cc3cc4c(cc3C1=O)CCC4)C2` (stereo not given), the TGI in [1], in assay [2], in assay [3], in [4], in [5] and in [6] was over 100 µM in each case. Further, the TGI in [7], in assay [8], in [9] and in [10] was over 100 µM each time.
For the molecule `Cn1c2ccccc2c2ccc3c(c21)C(=O)c1ccc2c4ccccc4n(C)c2c1C3=O`, the TGI in assay [1], in assay [2], in [3], in assay [4], in assay [5] and in assay [6] was over 100 µM throughout. The TGI in assay [7], in [8], in assay [9] and in assay [10] was over 100 µM throughout.
